Non-standard residues stand in square brackets, D forms with d. No end group written: not given here. sY = N[C@@H](Cc1ccc(OS(=O)(=O)O)cc1)C(=O)O
Tests used:
[1] = test system: DmGPCR9; experiment: calcium mobilization assay (FLIPR); format: cell-based, Drosophila melanogaster; conditions: given in words
Protocol: Changes in intracellular calcium levels are another recognized indicator of G protein-coupled receptor activity, and such assays can be employed to screen for modulators of DmGPCR activity. For example, CHO cells stably transfected with a DmGPCR expression vector are plated at a density of 4×10^4 cells/well in Packard black-walled, 96-well plates specially designed to discriminate fluorescence signals emanating from the various wells on the plate. The cells are incubated for 60 minutes at 37° C. in modified Dulbecco's PBS (D-PBS) containing 36 mg/L pyruvate and 1 g/L glucose and one of four calcium indicator dyes (Fluo-3™ AM, Fluo-4™ AM, Calcium Green™-1 AM, or Oregon Green™ 488 BAPTA-1 AM), each at a concentration of 4 μM. […]
A calcium response is initiated by the addition of one or more candidate receptor agonist compounds, calcium ionophore A23187 (10 μM; positive control), or ATP (4 μM; positive control). Fluorescence is measured by Molecular Device's FLIPR with an argon laser (excitation at 488 nm). […] Basal fluorescence of cells was measured for 20 seconds prior to addition of candidate agonist, ATP, or A23187, and the basal fluorescence level was subtracted from the response signal. The calcium signal is measured for approximately 200 seconds, taking readings every two seconds. […]

[2] = test system: DmGPCR9; experiment: [35S]GTPγS binding assay, membranes of transfected CHO cells; format: biochemical, Drosophila melanogaster; conditions: membranes from CHO cells transfected with DmGPCR9
Protocol: The transfected cells were washed once with ice-cold Dulbecco's phosphate buffered saline (PBS), 5 ml per 10 cm plate, and scraped into 5 ml of the same buffer. Cell suspensions from multiple plates were combined and centrifuged at 500×g for 10 min at 4° C. The cell pellet was reconstituted in ice-cold TEE (25 mM TRIS, 5 mM EGTA, 5 mM EDTA). Convenient aliquots were snap-frozen in liquid nitrogen and stored at −70° C. After thawing, the cells were homogenized and centrifuged at 4° C., 500×g for 5 minutes to pellet nuclei and unbroken cells. The supernatant was centrifuged at 47,000×g for 30 minutes at 4° C. […] Membrane protein concentration was determined using the BCA Protein Assay Reagent from Pierce (Rockford, Ill.) and BSA as standard. […]
Ligand-induced stimulation of [^35S]GTPγS binding was expressed as fold increase over the basal activity with no ligand added. Each treatment was run either in triplicate, or, on occasion, in duplicate, and the binding (cpm) was calculated as means +/− standard deviations. Dose-response curves for the receptor/ligand systems were analyzed using a non-linear least square SAS model, y=Bmax X/(Kd+X). Other dose-response curves were analyzed using Prism (GraphPad Software, Inc. San Diego, Calif.) and the following equation y=Bottom+(Top−Bottom)/(1+10^LogEC50-X). […]

Sequence of DmGPCR9 (as listed by the source): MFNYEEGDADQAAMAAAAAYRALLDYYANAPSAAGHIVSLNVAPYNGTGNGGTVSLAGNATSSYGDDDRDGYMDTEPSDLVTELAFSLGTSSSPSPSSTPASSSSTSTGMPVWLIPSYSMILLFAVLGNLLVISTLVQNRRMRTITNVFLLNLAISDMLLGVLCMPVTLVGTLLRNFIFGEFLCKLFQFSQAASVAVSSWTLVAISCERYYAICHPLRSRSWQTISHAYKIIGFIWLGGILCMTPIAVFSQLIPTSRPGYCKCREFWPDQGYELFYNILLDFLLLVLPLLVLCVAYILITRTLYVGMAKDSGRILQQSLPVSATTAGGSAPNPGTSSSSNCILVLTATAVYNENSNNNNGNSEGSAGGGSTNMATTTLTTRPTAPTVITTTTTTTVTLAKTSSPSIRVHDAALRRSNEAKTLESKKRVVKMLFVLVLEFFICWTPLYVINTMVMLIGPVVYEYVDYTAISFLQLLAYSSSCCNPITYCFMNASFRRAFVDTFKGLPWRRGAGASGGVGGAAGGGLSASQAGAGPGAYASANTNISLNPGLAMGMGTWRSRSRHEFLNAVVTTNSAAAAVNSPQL

## FDDY(SO3H)GHLRF-NH2 (FDD[sY]GHLRF-NH2; N-terminus assumed; SMILES CC(C)C[C@H](NC(=O)[C@H](Cc1c[nH]cn1)NC(=O)CNC(=O)[C@H](Cc1ccc(OS(=O)(=O)O)cc1)NC(=O)[C@H](CC(=O)O)NC(=O)[C@H](CC(=O)O)NC(=O)[C@@H](N)Cc1ccccc1)C(=O)N[C@@H](CCCNC(=N)N)C(=O)N[C@@H](Cc1ccccc1)C(N)=O)
[1]
  EC50, calcium mobilization assay: low nanomolar range
[2]
  GTPγS responses: no GTPγS responses

Source: patent publication US7364866B2, “Drosophila G protein coupled receptors, nucleic acids, and methods related to the same” (Pharmacia & Upjohn Company, priority 1999, dated 2008)
